The values below come from patent US11224224B2, “Thiobenzoimidazole as fungicides” (REDAG CROP PROTECTION LTD, priority 2017, dated 2022).

Usually EC50 stands for the concentration at which the effect is half-maximal.

What all share (type): cell-based
The subject of test [1] is Pythium ultimum. Nature of the test: Amended agar assay (PDA), colony growth. Particulars: Globisporangium ultimum; for inhibition of growth at 20 ppm: 20 ppm in amended PDA, 18° C., reduction in colony growth vs control plate; for EC50: amended agar, 5-fold dilutions. Here is the method: (§1) Testing was carried out on potato dextrose agar (PDA) amended with each compound at a test concentration of 20 ppm. Amended agar was poured into three replicate 9 cm petri dishes. Each replicate dish was inoculated in the centre with a 5 mm agar plug taken from the leading edge of a culture aged between 2 and 7 days old; the age of the culture was dependant on the growth rate of the pathogen being tested. The test pathogens were Pythium ultimum and Phytophthora cinnamomi. Plates were incubated at 18° C. and the diameter of each colony measured before growth on the fastest growing plate reached the plate edge. This varied between 2 and 7 days depending on the growth rate of test pathogens. The % reduction in colony growth compared to the control plate was calculated for each pathogen. The results are provided in Table 1, in which D represents no control detected at this concentration; C represents up to 50% control; B from 50 to 99% control; and A represents a control of greater than 99%, i.e. no detectable colony growth.
(§2) Alternatively, or in addition, the same assay was conducted at descending test concentrations with 5-fold dilutions typically down to 0.032 ppm though sometimes as low as 0.00026 ppm, and an EC50 (the concentration at which 50% control would be achieved) was determined. The results are provided in Table 1 in which G represents an EC50 above 20 ppm, F represents an EC50 of 1-20 ppm and E represents and EC50 less than 1 ppm.

Test [2] concerns Phytophthora cinnamomi. Briefly: Amended agar assay (PDA), colony growth. Particulars: Phytophthora cinnamomi; for inhibition of growth at 20 ppm: 20 ppm in amended PDA, 18° C., reduction in colony growth vs control plate, read-out: % control Phytophthora spp. 20 ppm; for EC50: amended agar, 5-fold dilutions (cells without *), read-out: EC50 Phytophthora spp. The protocol:
as §1, §2

Test [3] has as its system oomycete plant pathogens. Briefly: Fungicidal activity testing, overall summary. Particulars: summary statement on Table 1. Here is the method:
The activity of compounds of the invention was assessed by testing against certain oomycete plant pathogens and representative data are presented in Table 1.

The test system of test [4] is Pythium ultimum. Briefly: Amended agar assay (PDA), colony growth. As to conditions: for inhibition of growth at 2 ppm: Globisporangium ultimum, read-out: % control Pythium ultimum 2 ppm. Further details: key to % control Pythium ultimum 2 ppm: D: no control detected at this concentration; C: up to 50% control; B: from 50 to 99% control; A: a control of greater than 99%, i.e. no detectable colony growth.

Test [5] has as its system Phytophthora cactorum. Nature of the test: 96 well plate test (amended agar with spores). As to conditions: 96 well plate, 20, 2, 0.2 and 0.02 ppm, 1% PDA, 2 to 3 days (cells marked *), read-out: EC50 Phytophthora spp. (*96 well plate format vs. Phytophthora cactorum). Here is the method:
Compounds were screened in 96 well plates with 10 compounds per plate. Each compound was screened using agar amended to 20, 2, 0.2 and 0.02 ppm, with Proline at 50 and 10 ppm and 0.2% DMSO used as controls. Each test concentration and standard was replicated twice on a plate. Compounds were screened against Phytophthora cactorum. The agar used in the test is a 1% PDA. 1000 spores/mL agar were added to the appropriate agar.
A ×10 stock solution in 2% DMSO was produced for each dose i.e. 200, 20, 2 and 0.2 ppm, and 10 μl of this added to the appropriate wells on the plate. An equivalent amount of 2% DMSO and Proline stock at 500 and 100 ppm were added for the controls. To each well 90 μl of the appropriate agar spore suspension was added to give the required final well concentrations. Plates were incubated at room temperature (18° C.) and assessed after 2 to 3 days. The amount of pathogen growth in each well was compared to the DMSO controls and an EC50 concentration was calculated. The results are provided in Table 1 in which G represents an EC50 above 20 ppm, F represents an EC50 of 1-20 ppm and E represents an EC50 less than 1 ppm.

Values after ≈ are worked out from the molar mass of the structure shown. Bounds are passed on as bounds.

`Cn1nnnc1-n1c(SCc2ccccn2)nc2ccccc21` [Example 2]: the inhibition of growth at 20 ppm in test [1] is more than 99%; in test [2], 50 to 99%. Also, the EC50 in test [1] was 1 to 20 µg/mL (≈ 3.09 to 61.8 µM); in test [2], less than 1 µg/mL. Also, the “control over the pathogens tested” value in test [3] was “good to excellent control”. In test [4], the inhibition of growth at 2 ppm is more than 99%.
As to `Cn1nnnc1-n1c(SCc2cccc(NC(=O)C(F)(F)Oc3ccccc3)n2)nc2ccc(F)cc21` [Example 8], the EC50 in test [1] and in test [2] was less than 1 µg/mL throughout. Also, in test [3], the “control over the pathogens tested” value was “good to excellent control”. Also, in test [4], the inhibition of growth at 2 ppm was in the range of 50 to 99%.
Take `Cn1nnnc1-n1c(SCC(=O)N2CCCC2)nc2ccccc21` [Example 25]: the EC50 in test [1] and in test [2] was less than 1 µg/mL in each case. Besides, the “control over the pathogens tested” value in test [3] is recorded as “good to excellent control”. In addition, the inhibition of growth at 2 ppm in test [4] is 50 to 99%.
For the compound `Cn1nnnc1-n1c(SCc2cccc(NC(=O)C3CC3)n2)nc2ccccc21` [Example 35], the concentration for a half-maximal effect (EC50) in test [5] lay within 1 to 20 µg/mL (≈ 2.46 to 49.2 µM). For the same compound, in test [4], the inhibition of growth at 2 ppm fell in the range of 50 to 99%.
For `CCC(=O)Nc1cccc(CSc2nc3ccccc3n2-c2nnnn2C)n1` [Example 36], in test [5], the EC50 is more than 20 µg/mL. Further, in test [4], the inhibition of growth at 2 ppm fell in the range of 50 to 99%.
Regarding `COc1c(C)cnc(CSc2nc3ccccc3n2-c2nnnn2C)c1C` [Example 38], the EC50 in test [5] lay within 1 to 20 µg/mL (≈ 2.62 to 52.4 µM). In test [3], the “control over the pathogens tested” value was “good to excellent control”. Besides, the inhibition of growth at 2 ppm in test [4] was more than 99%.
On the same counts, the results for `COc1ccnc(CSc2nc3ccccc3n2-c2nnnn2C)c1OC` [Example 39] are 1 to 20 µg/mL (≈ 2.61 to 52.2 µM), “good to excellent control” and more than 99%.
In the same order, the values of `COCCCOc1ccnc(CSc2nc3ccccc3n2-c2nnnn2C)c1C` [Example 40] are 1 to 20 µg/mL (≈ 2.35 to 47 µM), “good to excellent control” and 50 to 99%.
In the same order, the values of `COc1ccnc(CSc2nc3ccccc3n2-c2nnnn2C)c1` [Example 42] are 1 to 20 µg/mL (≈ 2.83 to 56.6 µM), “good to excellent control” and more than 99%.
Consider `Cn1nnnc1-n1c(SCc2ccncn2)nc2ccccc21` [Example 43], for which the concentration for a half-maximal effect (EC50) in test [5] is more than 20 µg/mL. In addition, in test [4], the “% control Pythium ultimum 2 ppm” value is reported as “D”.
For `Cn1nnnc1-n1c(SCc2cccc(NC(=O)C(F)(F)Oc3ccccc3)n2)nc2ccc(I)cc21` [Example 44], in test [5], the EC50 was more than 20 µg/mL. The “% control Pythium ultimum 2 ppm” value in test [4] is “D”.
Regarding `Cn1nnnc1-n1c(SCc2cccc(NC(=O)COc3ccccc3)n2)nc2ccc(F)cc21` [Example 47], the EC50 in test [5] was less than 1 µg/mL. In addition, the “control over the pathogens tested” value in test [3] was “good to excellent control”. For the same compound, the inhibition of growth at 2 ppm in test [4] was more than 99%.
With `Cn1ccnc1-n1c(SCc2ccccn2)nc2ccccc21` [Example 49], the inhibition of growth at 20 ppm in test [1] was more than 99%; in test [2], 50 to 99%. Further, the EC50 in test [1] and in test [2] was 1 to 20 µg/mL (≈ 3.11 to 62.2 µM) each time. Besides, the “control over the pathogens tested” value in test [3] is on record as “good to excellent control”.
As for `Cn1ccnc1-n1c(SCc2cccc(NC(=O)C(F)(F)Oc3ccccc3)n2)nc2ccccc21` [Example 50], the EC50 in test [1] and in test [2] was less than 1 µg/mL throughout. Also, the “control over the pathogens tested” value in test [3] is recorded as “good to excellent control”.
In the case of `Clc1cncc(Cl)c1-n1c(SCc2ccccn2)nc2ccccc21` [Example 51], in test [5], the EC50 was more than 20 µg/mL. The “% control Pythium ultimum 2 ppm” value in test [4] is “D”.
In test [1], `Cn1nnnc1-n1c(SCc2ccccn2)nc2ccc(Br)cc21` [Example 52] registered an inhibition of growth at 20 ppm of 50 to 99% and a 50% effective concentration (EC50) of 1 to 20 µg/mL (≈ 2.49 to 49.7 µM). Further, in test [2], the inhibition of growth at 20 ppm fell in the range of 50 to 99% and the concentration giving a half-maximal response (EC50) is less than 1 µg/mL. Besides, in test [3], the “control over the pathogens tested” value was “good to excellent control”.
Regarding `Cn1nnnc1-n1c(SCc2csc(NC(=O)OC(C)(C)C)n2)nc2ccc(Br)cc21` [Example 53], the EC50 in test [1] and in test [2] was less than 1 µg/mL throughout. In addition, the “control over the pathogens tested” value in test [3] was “good to excellent control”.
Turning to `CCNC(=O)CSc1nc2ccccc2n1-c1nnnn1C` [Example 55], the EC50 in test [5] was more than 20 µg/mL. The inhibition of growth at 2 ppm in test [4] is less than 50%.
On the same counts, the results for `Cn1nnnc1-n1c(SCC(=O)N2CCOCC2)nc2ccccc21` [Example 56] are more than 20 µg/mL and less than 50%.
For `Cn1nnnc1-n1c(SCC(=O)Nc2ccccc2)nc2ccccc21` [Example 57], the EC50 in test [5] was more than 20 µg/mL. In addition, the inhibition of growth at 2 ppm in test [4] was less than 50%.
As to `CN(C)C(=O)CSc1nc2ccccc2n1-c1nnnn1C` [Example 58], the EC50 in test [5] is more than 20 µg/mL. In addition, the inhibition of growth at 2 ppm in test [4] is less than 50%.
Take `Cn1nnnc1-n1c(Sc2ncccn2)nc2ccccc21` [Example 60, 1-(1-Methyl-1H-tetrazol-5-yl)-2-(pyrimidin-2-ylthio)-1H-benzo[d]imidazole]: the EC50 in test [5] is more than 20 µg/mL. In test [4], the inhibition of growth at 2 ppm was less than 50%.
As for `Cn1nnnc1-n1c(Sc2ccccn2)nc2ccccc21` [Example 61, 1-(1-Methyl-1H-tetrazol-5-yl)-2-(pyridin-2-ylthio)-1H-benzo[d]imidazole], in test [5], the EC50 was more than 20 µg/mL. In addition, in test [4], the “% control Pythium ultimum 2 ppm” value is listed as “D”.
In the case of `C#Cc1ccc2nc(SCc3ccccn3)n(-c3nnnn3C)c2c1` [Example 64, 6-Ethynyl-1-(1-methyl-1H-tetrazol-5-yl)-2-((pyridin-2-ylmethyl)thio)-1H-benzo[d]imidazole], the EC50 in test [5] was more than 20 µg/mL. Further, in test [4], the inhibition of growth at 2 ppm was less than 50%.
In the same order, the values of `C#Cc1ccc2nc(SCc3cccc(NC(=O)C(F)(F)Oc4ccccc4)n3)n(-c3nnnn3C)c2c1` [Example 65, N-(6-(((6-Ethynyl-1-(1-methyl-1H-tetrazol-5-yl)-1H-benzo[d]imidazol-2-yl)thio)methyl)pyridin-2-yl)-2,2-difluoro-2-phenoxyacetamide] are more than 20 µg/mL and 50 to 99%.
On the same counts, the results for `Cn1nnnc1-n1c(SCc2nccc3ccccc23)nc2ccccc21` [Example 68] are more than 20 µg/mL and 50 to 99%.
Regarding `COc1cccnc1CSc1nc2ccccc2n1-c1nnnn1C` [Example 71], the 50% effective concentration (EC50) in test [5] was more than 20 µg/mL. Besides, the inhibition of growth at 2 ppm in test [4] is less than 50%.
As to `Cn1nnnc1-n1c(SCc2cccc(C#N)n2)nc2ccccc21` [Example 72], the EC50 in test [5] is more than 20 µg/mL. In test [4], the “% control Pythium ultimum 2 ppm” value is “D”.
Turning to `Cn1nnnc1-n1c(SCc2ccc(C#N)cn2)nc2ccccc21` [Example 74], the EC50 in test [5] is more than 20 µg/mL. The inhibition of growth at 2 ppm in test [4] is less than 50%.
On the same counts, the results for `Cn1nnnc1-n1c(SCc2ncc(Cl)cc2Cl)nc2ccccc21` [Example 77] are more than 20 µg/mL and 50 to 99%.
For the compound `Cn1nnnc1-n1c(SCc2cccc(NC(=O)C3CC3)n2)nc2cccc(Cl)c21` [Example 81], the EC50 in test [5] was more than 20 µg/mL.
For the compound `Cn1nnnc1-n1c(SCc2ccccn2)nc2cccc(Cl)c21` [Example 82], the EC50 in test [5] is more than 20 µg/mL. Further, the inhibition of growth at 2 ppm in test [4] was 50 to 99%.
In the case of `COc1cc(F)cc2c1nc(SCc1ccccn1)n2-c1nnnn1C` [Example 85], in test [5], the EC50 was more than 20 µg/mL. Moreover, the inhibition of growth at 2 ppm in test [4] was more than 99%.
